In patent US20240308973A1, “PHOSPHODIESTERASE 3 (PDE3) INHIBITORS” (Zoetis Services LLC, priority 2023, published 2024):
Where “and” joins values, the source holds several entries; their conditions need not be identical. Identical values can stand only once. Like-named read-outs stand apart in the source and are kept apart here. Values belong to the compound of their own block, whether it stands above or below them.

Tests used:
[1] = system: adult human primary ventricular cardiomyocytes; experiment: contractility amplitude (CA) assay; type: cell-based; conditions: for Contractility amplitude: vehicle 100, 1 Hz
Method: Further, Example #57 (30 μM) was tested in a contractility amplitude (CA) assay using adult human primary ventricular cardiomyocytes dissociated from human donor hearts to determine the potential of the compound to exert its positive inotropic effect by a single (Ca^2+ sensitization or inhibition of PDE3) or dual (Ca^2+ sensitization and inhibition of PDE3) mechanism of action. Cardiomyocytes were incubated at 35° C. under continuous perfusion (2 mL/minute) in a buffer (vehicle) solution (HEPES (10 mM), NaCl (145 mM), KCl (4 mM), MgCl2 1 mM), CaCl2) (1.8 mM) and dextrose (11.1 mM)) plus 0.1% DMSO). Cells were equilibrated for a minimum of 5 minutes and stimulated with 1.0 Hz with a 1.5× stimulation intensity. A 100 μM IBMX (3-isobutyl-1-methylxanthine) non-selective inhibitor of PDE was used. Treatment time and stimulation was 300 seconds at 1.0 Hz. Data was collected using MyoBLAZER™ (v 2.9.2) software. Equilibrated cells (n=12) were stimulated with supra-threshold voltage at 1 Hz pacing frequency (bipolar pulse of 3 ms duration). Starting at 1 V, the amplitude of the stimulating pulse was increased until the cardiomyocytes started generating contraction-relaxation cycles. Contractility amplitude was calculated from the average of the last 20 contractility transients. Contractility amplitude for vehicle, IBMX and IBMX with Example #57 was 100, 136.8 and 267.6, respectively. […] IBMX increased CA by inhibiting PDE, however, there was an even larger increase in CA in the presence of Ex #57. Additionally, the CA assay was used to assess the potential of Ex #57 to exert a shift in the calcium concentration EC50. […] From this second CA study, contractility of the myocytes was dose dependent on calcium concentration. Contractility at 100 μM, 1000 μM and 10,000 μM CaCl2 was 3.11, 56.31 and 228.61, respectively. With the addition of 30 μM Ex #57, respective contractility values increased to 40.17, 182.67 and 284.27.

[2] = orally administered; cited from earlier work
[3] = system: NT-proBNP; experiment: NT-proBNP circulating biomarker reduction; type: in vivo, canine; conditions: for reduced NT-proBNP levels: over a 12 hour period
Method: NT-proBNP is a standard circulating biomarker of canine MMVD secreted by ventricular cardiomyocytes in response to stretching from volume or pressure overload. It is a well-defined diagnostic and prognostic biological indicator of myocardial wall stress and can be used as a biomarker for acute changes in left ventricular loading conditions. […] In one instance, Example #26 had reduced NT-proBNP levels by 49% and 62% at doses of 0.03 and 0.1 mg/kg, respectively, over a 12 hour period.

[4] = molecular target: dog PDE3A recombinant enzyme (Canis lupus familiaris, UniProt A0A8I3NYE0); experiment: cPDE3A assay (fluorescent polarization); type: biochemical; conditions: canine PDE3A, read-out: cPDE3 Inhibition (IC50)
How it was run: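 Recombinant dog PDE3A (5 pg/μL final) with FAM-cyclic-3′,5′-AMP substrate, inhibition read as fluorescence polarization change. Compounds tested in ≥7-point series from 10 μM, 0.1% final DMSO; IC50 calculated.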

[5] = Dog plasma half-life after oral dose; type: in vivo; conditions: Beagle dogs, plasma over 72 hours, read-out: t½ (hrs), Dog Plasma Compound Half-life (converted)
Method: Lastly, plasma half-life was assessed for a number of compounds in dogs. Beagle dogs were given an oral dose (0.1 mg/kg) of the respective compound accounting for a dose amount of about 1 mg/dog. Pimopendan was administered at a 0.3 mg/kg dose.

[6] = system: PDE3; conditions: JMC Vol. 35, 1992; cited from earlier work
[7] = system: human iCell cardiomyocytes; experiment: Human iPS cardiomyocyte contractility assay; type: cell-based; conditions: human cardiomyocytes chronically paced (2 Hz)
Method: Human iPS Cardiomyocyte Contractility Assay
Frozen human iCell® cardiomyocytes (FujiFilm® Cellular Dynamics Inc.) were thawed and plated in the center of each well of an Axion® Biosystems cytoview 24-well microelectrode array plate that was coated with human fibronectin in a 5-6 μL droplet at a density of 7-10×10^6 cells/mL. The cells were maintained in culture in a 37° C. humidified incubator at 5% CO2. After at least seven days in culture with maintenance media changes every 2-3 days, the cells were paced at 2 Hz for approximately 48 hours on the Axion® Biosystems Maestro Pro instrument using the field potential application in the Axis Navigator software before returning to the spontaneous beating for at least 10 minutes in the contractility application (i.e., Axion® Biosystems procedure for Positive Inotropy Protocol). […] Readings were taken at 3, 13, 23, 33, 43 and 53 minutes. […] Each compound was evaluated for the contractility response relative to the vehicle control (DMSO). […]
Myocardial contractility represents the innate ability of the heart muscle to contract. […] Cardiomyocyte contractibility of the compounds of the invention, as defined by changes in mean % delta beat amplitude, were determined to have a positive inotropic effect (i.e., a stronger cardiac muscle contraction force).

[8] = system: calcium sensitization; conditions: JMC Vol. 35, 1992; cited from earlier work

dog PDE3A recombinant enzyme, sequence (A0A8I3NYE0 1-1135): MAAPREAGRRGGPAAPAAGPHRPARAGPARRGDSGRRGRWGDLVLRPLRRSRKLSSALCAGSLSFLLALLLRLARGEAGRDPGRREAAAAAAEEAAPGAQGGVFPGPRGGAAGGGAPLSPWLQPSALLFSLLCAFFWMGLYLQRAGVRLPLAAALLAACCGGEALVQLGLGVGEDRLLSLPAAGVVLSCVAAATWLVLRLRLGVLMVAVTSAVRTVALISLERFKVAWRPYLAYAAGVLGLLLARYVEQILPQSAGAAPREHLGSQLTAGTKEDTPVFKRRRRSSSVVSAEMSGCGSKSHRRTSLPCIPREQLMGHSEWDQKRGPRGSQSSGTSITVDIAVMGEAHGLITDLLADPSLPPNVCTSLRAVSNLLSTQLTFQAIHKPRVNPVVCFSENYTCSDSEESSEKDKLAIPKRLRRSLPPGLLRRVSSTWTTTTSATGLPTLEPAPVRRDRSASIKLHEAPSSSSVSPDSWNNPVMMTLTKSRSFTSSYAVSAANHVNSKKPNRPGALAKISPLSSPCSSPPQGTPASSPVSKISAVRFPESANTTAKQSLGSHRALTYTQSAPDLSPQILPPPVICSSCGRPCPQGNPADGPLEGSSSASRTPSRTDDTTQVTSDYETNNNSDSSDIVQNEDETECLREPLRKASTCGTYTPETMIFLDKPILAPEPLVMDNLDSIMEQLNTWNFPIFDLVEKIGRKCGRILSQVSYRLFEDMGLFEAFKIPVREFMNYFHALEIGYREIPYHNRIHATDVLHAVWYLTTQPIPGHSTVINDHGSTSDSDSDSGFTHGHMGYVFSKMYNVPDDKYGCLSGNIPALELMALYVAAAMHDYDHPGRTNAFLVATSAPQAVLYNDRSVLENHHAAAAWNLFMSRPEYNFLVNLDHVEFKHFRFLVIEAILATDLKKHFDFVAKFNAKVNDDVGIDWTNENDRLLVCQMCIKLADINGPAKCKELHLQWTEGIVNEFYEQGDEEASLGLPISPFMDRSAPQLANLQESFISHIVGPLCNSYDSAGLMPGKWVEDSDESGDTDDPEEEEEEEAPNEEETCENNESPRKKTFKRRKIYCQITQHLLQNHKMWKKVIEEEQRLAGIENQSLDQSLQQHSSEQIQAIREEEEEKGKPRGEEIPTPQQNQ

SMILES: CC(C)Cn1c(=O)n(C)c(=O)c2[nH]cnc21 [IBMX, 3-isobutyl-1-methylxanthine, reference compound]
- Contractility amplitude ([1]; 100 μM IBMX alone): 136.8

SMILES: CC1(C)C(=O)Nc2ccc(C3=NNC(=O)CC3)cc21 [indolidan]
- calcium-sensitizing properties [8]: lacked calcium-sensitizing properties
- IC50 [6]: 520 nM

SMILES: CC1CC(=O)NN=C1c1cc(F)c2c(c1)C(C)(C)C(=O)N2 (stereo not drawn) [Example #26, 7-fluoro-3,3-dimethyl-5-(4-methyl-6-oxo-1,4,5,6-tetrahydropyridazin-3-yl)indolin-2-one]
- reduced NT-proBNP levels ([3]; 0.03 mg/kg): 49%
- reduced NT-proBNP levels ([3]; 0.1 mg/kg): 62%
- IC50 [4]: 7.4 nM

Second part, led by results:

- IC50 [4]: ~1530 nM and 1530 nM
- half-life ([5]; oral, 0.3 mg/kg dose): 0.4 h
SMILES: COc1ccc(-c2nc3ccc(C4=NNC(=O)CC4C)cc3[nH]2)cc1 (racemic) [pimobendan, 6-(2-(4-methoxyphenyl)-1H-benzo[d]imidazol-6-yl)-5-methyl-4,5-dihydropyridazin-3 (2H)-one]
- bioavailability [2]: 60-65%
- elimination half-life [2]: ~1.6 h
- tmax [2]: about 2 hours
- decrease in NT-proBNP ([3]; labeled dose, 24 hours post dose): 41%
- IC50 [6]: 560 nM
- contractility of cardiomyocytes (changes in mean % delta beat amplitude) [7]: dose dependently increases contractility

- IC50 [4]: 14.2 nM
- half-life ([5]; oral dose 0.1 mg/kg): 10 h
SMILES: CC1SC(=O)NN=C1c1cc(F)c2c(c1)CC(=O)N2 (stereo not drawn) [Example #57, 5-(7-fluoro-2-oxoindolin-5-yl)-6-methyl-3,6-dihydro-2H-1,3,4-thiadiazin-2-one]
- Contractility ([1]; 100 μM CaCl2 with 30 μM Ex #57 (3.11 without)): 40.17
- Contractility amplitude ([1]; 100 μM IBMX with 30 μM Example #57): 267.6
- Contractility ([1]; 1000 μM CaCl2 with 30 μM Ex #57 (56.31 without)): 182.67
- Contractility ([1]; 10,000 μM CaCl2 with 30 μM Ex #57 (228.61 without)): 284.27
- EC50 ([1]; Homo sapiens, Cardiomyocyte, without Ex #57 1286 μM, read-out: calcium concentration EC50 with Ex #57): 821 µM
